# Results as given in patent US11998537B2, “Substituted indole dimer compounds” (BRISTOL-MYERS SQUIBB COMPANY, priority 2018, dated 2024).
# Columns and labels:
# Type in all cases: cell-based
# [1] = target: T1, human TLR8 (Homo sapiens, UniProt Q9NR97); assay: TLR8 inhibition reporter assay (HEK-Blue SEAP); settings: HEK-Blue cells overexpressing human TLR8, R848 15.9 μM, 22 hour incubation
# T1 construct: host or cells: HEK-Blue cells (HEK293-derived reporter line)
# T1 sequence (Q9NR97 27-1041): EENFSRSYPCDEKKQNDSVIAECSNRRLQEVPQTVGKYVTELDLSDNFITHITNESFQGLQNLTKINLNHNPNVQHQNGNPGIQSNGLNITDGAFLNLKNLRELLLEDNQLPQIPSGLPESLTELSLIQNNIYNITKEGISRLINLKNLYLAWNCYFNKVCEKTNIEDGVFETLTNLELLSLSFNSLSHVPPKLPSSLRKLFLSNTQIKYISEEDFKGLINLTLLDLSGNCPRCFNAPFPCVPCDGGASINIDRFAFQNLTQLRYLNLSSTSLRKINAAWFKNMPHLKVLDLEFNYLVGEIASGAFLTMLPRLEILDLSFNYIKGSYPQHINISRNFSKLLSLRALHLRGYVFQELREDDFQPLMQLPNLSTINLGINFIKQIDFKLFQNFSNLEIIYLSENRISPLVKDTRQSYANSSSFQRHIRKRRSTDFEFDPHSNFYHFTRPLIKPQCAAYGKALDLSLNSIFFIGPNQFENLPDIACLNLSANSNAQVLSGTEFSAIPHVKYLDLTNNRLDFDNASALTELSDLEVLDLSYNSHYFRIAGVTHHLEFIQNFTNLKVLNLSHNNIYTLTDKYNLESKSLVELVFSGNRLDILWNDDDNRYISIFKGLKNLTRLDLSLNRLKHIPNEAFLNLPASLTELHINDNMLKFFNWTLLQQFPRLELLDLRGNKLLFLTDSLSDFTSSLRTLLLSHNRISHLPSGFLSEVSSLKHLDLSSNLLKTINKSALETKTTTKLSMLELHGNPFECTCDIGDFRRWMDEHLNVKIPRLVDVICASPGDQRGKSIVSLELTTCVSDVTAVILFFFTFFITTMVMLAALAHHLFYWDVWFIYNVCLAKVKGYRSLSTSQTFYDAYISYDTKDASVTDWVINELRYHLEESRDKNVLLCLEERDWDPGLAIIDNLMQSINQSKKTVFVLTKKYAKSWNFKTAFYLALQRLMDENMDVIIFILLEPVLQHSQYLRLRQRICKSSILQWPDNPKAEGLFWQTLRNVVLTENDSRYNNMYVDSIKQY
# Method: (§1) TLR7/8/9 Inhibition Reporter Assays
# (§2) HEK-Blue™-cells (Invivogen) overexpressing human TLR7, TLR8 or TLR9 receptors were used for screening inhibitors of these receptors using an inducible SEAP (secreted embryonic alkaline phosphatase) reporter gene under the control of the IFN-β minimal promoter fused to five NF-κB and AP-1-binding sites. Briefly, cells are seeded into Greiner 384 well plates (15000 cells per well for TLR7, 20,000 for TLR8 and 25,000 for TLR9) and then treated with test compounds in DMSO to yield a final dose response concentration range of 0.05 nM-50 μM. After a 30 minute compound pre-treatment at room temperature, the cells are then stimulated with a TLR7 ligand (gardiquimod at a final concentration of 7.5 μM), TLR8 ligand (R848 at a final concentration of 15.9 μM) or TLR9 ligand (ODN2006 at a final concentration of 5 nM) to activate NF-κB and AP-1 which induce the production of SEAP. After a 22 hour incubation at 37° C., 5% CO2, SEAP levels are determined with the addition of HEK-Blue™ Detection reagent (Invivogen), a cell culture medium that allows for detection of SEAP, according to manufacturer's specifications. The percent inhibition is determined as the % reduction in the HEK-Blue signal present in wells treated with agonist plus DMSO alone compared to wells treated with a known inhibitor.
# [2] = target: T2, human TLR7 (Homo sapiens, UniProt Q9NYK1); assay: TLR7 inhibition reporter assay (HEK-Blue SEAP); settings: HEK-Blue cells overexpressing human TLR7, gardiquimod 7.5 μM, 22 hour incubation
# T2 construct: host or cells: HEK-Blue cells (HEK293-derived reporter line)
# T2 sequence (Q9NYK1 27-1049): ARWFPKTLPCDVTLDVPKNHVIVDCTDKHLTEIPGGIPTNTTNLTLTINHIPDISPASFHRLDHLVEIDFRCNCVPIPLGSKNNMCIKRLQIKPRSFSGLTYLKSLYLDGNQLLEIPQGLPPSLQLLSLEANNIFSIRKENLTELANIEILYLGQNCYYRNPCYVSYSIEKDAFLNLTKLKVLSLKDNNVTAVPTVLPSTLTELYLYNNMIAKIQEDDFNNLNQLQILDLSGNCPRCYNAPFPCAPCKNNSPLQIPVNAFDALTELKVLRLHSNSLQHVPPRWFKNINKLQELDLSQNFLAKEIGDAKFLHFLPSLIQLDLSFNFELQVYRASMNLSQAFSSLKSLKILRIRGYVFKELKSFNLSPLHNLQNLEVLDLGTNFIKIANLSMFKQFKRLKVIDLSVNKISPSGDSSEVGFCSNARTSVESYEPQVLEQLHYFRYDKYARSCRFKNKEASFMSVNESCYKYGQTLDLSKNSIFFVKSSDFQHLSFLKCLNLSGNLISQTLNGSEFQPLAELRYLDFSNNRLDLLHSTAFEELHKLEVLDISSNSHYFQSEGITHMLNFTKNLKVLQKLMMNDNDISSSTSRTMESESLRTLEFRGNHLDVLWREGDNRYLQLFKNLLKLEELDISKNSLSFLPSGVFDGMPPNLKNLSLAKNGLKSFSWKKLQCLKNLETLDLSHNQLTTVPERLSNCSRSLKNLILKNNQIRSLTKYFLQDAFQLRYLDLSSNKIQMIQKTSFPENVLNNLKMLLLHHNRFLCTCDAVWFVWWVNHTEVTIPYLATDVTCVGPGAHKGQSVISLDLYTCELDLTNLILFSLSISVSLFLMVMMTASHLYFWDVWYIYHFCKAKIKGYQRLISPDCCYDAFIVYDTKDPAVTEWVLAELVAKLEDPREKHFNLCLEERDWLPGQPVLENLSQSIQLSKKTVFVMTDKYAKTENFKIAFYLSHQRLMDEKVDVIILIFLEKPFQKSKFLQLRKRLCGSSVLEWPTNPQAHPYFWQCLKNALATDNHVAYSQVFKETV
# Method: as §1, §2
# [3] = target: T3, human TLR9 (Homo sapiens, UniProt Q9NR96); assay: TLR9 inhibition reporter assay (HEK-Blue SEAP); settings: HEK-Blue cells overexpressing human TLR9, ODN2006 5 nM, 22 hour incubation
# T3 construct: host or cells: HEK-Blue cells (HEK293-derived reporter line)
# T3 sequence (Q9NR96 26-1032): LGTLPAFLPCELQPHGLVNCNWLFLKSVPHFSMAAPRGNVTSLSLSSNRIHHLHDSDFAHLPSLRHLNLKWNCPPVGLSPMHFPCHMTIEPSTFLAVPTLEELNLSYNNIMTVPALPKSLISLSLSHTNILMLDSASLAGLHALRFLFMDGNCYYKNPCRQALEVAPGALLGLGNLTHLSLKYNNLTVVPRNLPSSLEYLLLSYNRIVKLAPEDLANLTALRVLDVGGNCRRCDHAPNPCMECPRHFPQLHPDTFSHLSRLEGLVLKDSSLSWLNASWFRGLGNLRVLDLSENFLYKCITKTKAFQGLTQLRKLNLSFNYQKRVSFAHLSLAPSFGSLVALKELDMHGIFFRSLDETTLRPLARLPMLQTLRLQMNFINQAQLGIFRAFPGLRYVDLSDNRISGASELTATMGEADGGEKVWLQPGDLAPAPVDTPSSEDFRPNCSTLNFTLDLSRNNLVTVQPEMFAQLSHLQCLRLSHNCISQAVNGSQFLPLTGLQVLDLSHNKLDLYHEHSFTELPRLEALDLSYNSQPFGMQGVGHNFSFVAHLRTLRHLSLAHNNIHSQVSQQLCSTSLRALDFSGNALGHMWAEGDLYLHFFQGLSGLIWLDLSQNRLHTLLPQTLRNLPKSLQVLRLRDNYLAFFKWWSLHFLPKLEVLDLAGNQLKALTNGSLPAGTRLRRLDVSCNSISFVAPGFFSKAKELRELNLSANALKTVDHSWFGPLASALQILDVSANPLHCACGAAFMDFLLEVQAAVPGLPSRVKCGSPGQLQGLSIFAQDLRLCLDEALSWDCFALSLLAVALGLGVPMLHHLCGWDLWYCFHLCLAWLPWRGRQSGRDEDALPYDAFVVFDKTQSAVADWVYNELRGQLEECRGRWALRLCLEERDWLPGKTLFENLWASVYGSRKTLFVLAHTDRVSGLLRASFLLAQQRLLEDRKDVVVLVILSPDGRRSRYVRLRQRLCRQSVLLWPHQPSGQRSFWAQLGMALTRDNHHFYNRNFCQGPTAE
# Method: as §1, §2
molecule,measurement,setting,value
"COc1cc(-c2[nH]c3ccc(C4CCN(CCCCCCCCCCCCCCCCCCN5CCC(c6ccc7[nH]c(-c8cc(OC)c9ncnn9c8)c(C(C)C)c7c6)CC5)CC4)cc3c2C(C)C)cn2ncnc12 [Example 12, 1,18-bis(4-(3-isopropyl-2-(8-methoxy-[1,2,4]triazolo[1,5-a]pyridin-6-yl)-1H-indol-5-yl)piperidin-1-yl)octadecane]",IC50,[1],509 nM
same,IC50,[2],191 nM
same,IC50,[3],13400 nM
"COc1cc(-c2[nH]c3ccc(C4CCN(CCNC(=O)CCCCCCCCCCCC(=O)NCCN5CCC(c6ccc7[nH]c(-c8cc(OC)c9ncnn9c8)c(C(C)C)c7c6)CC5)CC4)cc3c2C(C)C)cn2ncnc12 [Example 1, N1,N13-bis(2-(4-(3-isopropyl-2-(8-methoxy-[1,2,4]triazolo[1,5-a]pyridin-6-yl)-1H-indol-5-yl)piperidin-1-yl)ethyl)tridecanediamide]",IC50,[1],1.4 nM
same,IC50,[2],0.92 nM
same,IC50,[3],121 nM
"COc1cc(-c2[nH]c3ccc(C4CCN(CCNC(=O)CCCCCC(=O)NCCN5CCC(c6ccc7[nH]c(-c8cc(OC)c9ncnn9c8)c(C(C)C)c7c6)CC5)CC4)cc3c2C(C)C)cn2ncnc12 [Example 8, N1,N7-bis(2-(4-(3-isopropyl-2-(8-methoxy-[1,2,4]triazolo[1,5-a]pyridin-6-yl)-1H-indol-5-yl)piperidin-1-yl)ethyl)heptanediamide]",IC50,[1],0.28 nM
same,IC50,[2],0.19 nM
same,IC50,[3],175 nM
"COc1cc(-c2[nH]c3ccc(C4CCN(CCNC(=O)CCCCCCCCCCC(=O)NCCN5CCC(c6ccc7[nH]c(-c8cc(OC)c9ncnn9c8)c(C(C)C)c7c6)CC5)CC4)cc3c2C(C)C)cn2ncnc12 [Example 3, N1,N12-bis(2-(4-(3-isopropyl-2-(8-methoxy-[1,2,4]triazolo[1,5-a]pyridin-6-yl)-1H-indol-5-yl)piperidin-1-yl)ethyl)dodecanediamide]",IC50,[1],0.32 nM
same,IC50,[2],0.31 nM
same,IC50,[3],99 nM
"COc1cc(-c2[nH]c3ccc(C4CCN(C(=O)CCCCCCCCCCCCCCCCCC(=O)N5CCC(c6ccc7[nH]c(-c8cc(OC)c9ncnn9c8)c(C(C)C)c7c6)CC5)CC4)cc3c2C(C)C)cn2ncnc12 [Comparator Compound C3, reference compound]",IC50,[1],> 3130 nM
same,IC50,[2],> 3130 nM
same,IC50,[3],> 50000 nM
"COc1cc(-c2[nH]c3ccc(C4CCN(C(=O)CCCCCCCCCCCCCCCCC(=O)N5CCC(c6ccc7[nH]c(-c8cc(OC)c9ncnn9c8)c(C(C)C)c7c6)CC5)CC4)cc3c2C(C)C)cn2ncnc12 [Comparator Compound C1, 1,18-bis(4-(3-isopropyl-2-(8-methoxy-[1,2,4]triazolo[1,5-a]pyridin-6-yl)-1H-indol-5-yl)piperidin-1-yl)octadecane-1,18-dione, reference compound]",IC50,[1],≥ 3130 nM
same,IC50,[2],> 3130 nM
same,IC50,[3],> 50000 nM
"COc1cc(-c2[nH]c3ccc(C4CCN(CCNC(=O)CCC(=O)NCCN5CCC(c6ccc7[nH]c(-c8cc(OC)c9ncnn9c8)c(C(C)C)c7c6)CC5)CC4)cc3c2C(C)C)cn2ncnc12 [Example 11, N1,N4-bis(2-(4-(3-isopropyl-2-(8-methoxy-[1,2,4]triazolo[1,5-a]pyridin-6-yl)-1H-indol-5-yl)piperidin-1-yl)ethyl)succinamide]",IC50,[1],143 nM
same,IC50,[2],17 nM
same,IC50,[3],4600 nM
"N1,N12-bis(2-(4-(3-isopropyl-2-(8-methoxy-[1,2,4]triazolo[1,5-a]pyridin-6-yl)-1H-indol-5-yl)piperidin-1-yl)ethyl)dodecanediamide [Example 10]",IC50,[1],1.1 nM
same,IC50,[2],1.3 nM
same,IC50,[3],44 nM
"COc1cc(-c2[nH]c3ccc(C4CCN(CCN)CC4)cc3c2C(C)C)cn2ncnc12 [Comparator Compound C4, 2-(4-(3-isopropyl-2-(8-methoxy-[1,2,4]triazolo[1,5-a]pyridin-6-yl)-1H-indol-5-yl)piperidin-1-yl)ethan-1-amine, reference compound]",IC50,[1],2.1 nM
same,IC50,[2],0.6 nM
same,IC50,[3],1970 nM
"COc1cc(-c2[nH]c3ccc(C4CCN(CCNC(=O)CCCCC(=O)NCCN5CCC(c6ccc7[nH]c(-c8cc(OC)c9ncnn9c8)c(C(C)C)c7c6)CC5)CC4)cc3c2C(C)C)cn2ncnc12 [Example 9, N1,N6-bis(2-(4-(3-isopropyl-2-(8-methoxy-[1,2,4]triazolo[1,5-a]pyridin-6-yl)-1H-indol-5-yl)piperidin-1-yl)ethyl)adipamide]",IC50,[1],0.59 nM
same,IC50,[2],0.19 nM
same,IC50,[3],348 nM
